pIC50: −log10 of the molar value.
What was measured:
Histone deacetylase 1 = Histone deacetylase 1 (Homo sapiens, UniProt Q13547); test: Potency index, ratio of test compound IC50 to Quisinostat IC50 for inhibition of recombinant human full length C-terminal His/FLAG tagged HDAC1 (1 to 482 residues) expressed in baculovirus-infected Sf9 cells using Ac-peptide as substrate incubated for 4 hrs
[1] = molecular target: T1, Protein deacetylase HDAC6 (Homo sapiens, UniProt Q9UBN7); test: Inhibition of recombinant human full length N-terminal GST tagged HDAC6 (1 to 1215 residues) expressed in baculovirus-infected Sf9 cells using Ac-peptide as substrate incubated for 4 hrs
T1 sequence (Q9UBN7 whole entry): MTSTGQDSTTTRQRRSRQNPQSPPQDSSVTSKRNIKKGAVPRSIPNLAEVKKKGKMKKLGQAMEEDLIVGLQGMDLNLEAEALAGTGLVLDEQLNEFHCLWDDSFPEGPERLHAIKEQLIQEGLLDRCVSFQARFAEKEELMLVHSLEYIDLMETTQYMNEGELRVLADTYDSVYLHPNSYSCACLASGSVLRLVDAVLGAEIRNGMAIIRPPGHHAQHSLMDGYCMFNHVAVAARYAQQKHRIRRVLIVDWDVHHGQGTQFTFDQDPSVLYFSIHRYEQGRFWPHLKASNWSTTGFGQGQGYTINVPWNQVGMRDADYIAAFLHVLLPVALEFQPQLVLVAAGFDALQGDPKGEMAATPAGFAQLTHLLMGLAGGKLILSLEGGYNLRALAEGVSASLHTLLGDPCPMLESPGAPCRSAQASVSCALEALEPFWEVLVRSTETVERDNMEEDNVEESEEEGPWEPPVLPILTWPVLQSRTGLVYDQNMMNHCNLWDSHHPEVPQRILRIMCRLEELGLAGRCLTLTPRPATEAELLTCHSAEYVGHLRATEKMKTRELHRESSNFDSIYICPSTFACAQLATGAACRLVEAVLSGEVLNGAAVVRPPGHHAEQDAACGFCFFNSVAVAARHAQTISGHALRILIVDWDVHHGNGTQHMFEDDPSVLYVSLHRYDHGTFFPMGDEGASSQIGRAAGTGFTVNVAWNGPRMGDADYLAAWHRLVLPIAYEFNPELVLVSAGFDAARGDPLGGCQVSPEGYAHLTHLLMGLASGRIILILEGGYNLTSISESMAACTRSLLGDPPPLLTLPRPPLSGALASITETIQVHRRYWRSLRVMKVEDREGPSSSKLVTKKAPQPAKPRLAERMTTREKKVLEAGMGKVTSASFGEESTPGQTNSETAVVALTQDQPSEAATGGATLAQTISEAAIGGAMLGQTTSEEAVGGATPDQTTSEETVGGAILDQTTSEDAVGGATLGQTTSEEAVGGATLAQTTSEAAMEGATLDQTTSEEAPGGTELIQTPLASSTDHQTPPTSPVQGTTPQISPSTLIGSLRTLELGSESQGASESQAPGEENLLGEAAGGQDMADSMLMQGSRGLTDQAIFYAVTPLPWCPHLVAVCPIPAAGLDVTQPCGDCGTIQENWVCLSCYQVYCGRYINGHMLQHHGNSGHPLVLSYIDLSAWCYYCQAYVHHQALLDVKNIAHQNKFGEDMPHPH

Plasmodium falciparum = test: Antimalarial activity against asexual blood stage sulfadoxine-pyrimethamine/mefloquine-resistant Plasmodium falcipuram CP286 assessed as parasite growth inhibition incubated for 72 hrs by SYBR Green I staining based fluorescence analysis; assay type: functional, organism-based; settings: CP286, 72 h

Chain of Histone deacetylase 1 (Q13547 whole entry, the tested form may be a part): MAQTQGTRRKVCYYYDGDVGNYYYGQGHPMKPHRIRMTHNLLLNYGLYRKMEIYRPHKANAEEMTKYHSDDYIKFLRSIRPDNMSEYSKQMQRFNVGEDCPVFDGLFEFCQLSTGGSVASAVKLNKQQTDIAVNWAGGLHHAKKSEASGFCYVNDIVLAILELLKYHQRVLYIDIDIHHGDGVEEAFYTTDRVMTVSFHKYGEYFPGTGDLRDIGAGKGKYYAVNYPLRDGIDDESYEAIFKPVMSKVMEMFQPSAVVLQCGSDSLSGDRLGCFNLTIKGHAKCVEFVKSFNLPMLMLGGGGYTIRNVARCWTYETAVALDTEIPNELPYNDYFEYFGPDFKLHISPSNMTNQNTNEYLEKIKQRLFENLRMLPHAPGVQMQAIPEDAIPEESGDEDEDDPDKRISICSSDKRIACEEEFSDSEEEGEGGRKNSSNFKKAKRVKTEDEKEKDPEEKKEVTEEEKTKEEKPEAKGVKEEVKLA

`Cl.Cn1cc(CN2CC3(CCN(c4ncc(C(=O)NO)cn4)C3)C2)c2ccc(C#N)cc21` was tested. Which Ratio IC50 (Histone deacetylase 1) did it give?
Its Ratio IC50 is 3.

What about the pIC50 [1] of the same molecule?
Its pIC50 is 7.07.

What about the pIC50 (Plasmodium falciparum) of the same molecule?
Its pIC50 is 8.23.

From ChEMBL document CHEMBL5046276 (J Med Chem, 2022)
